Results on 1 compound are retold here after patent US20180156826A1, “COMPOSITIONS AND METHODS FOR DIAGNOSIS OF AUTISM SPECTRUM DISORDER” (The Board of Regents of the University of Texas System, priority 2015, published 2018).

The structures appear in SMILES notation. Square brackets hold non-standard residues; d marks the D form. Peptide text beside a SMILES is read from it. ξ: configuration not given here. N(3,4-(MeO)2phenethyl)Gly = COc1ccc(CCNCC(=O)O)cc1OC; Gly(N-(CH2)3OMe) = COCCCNCC(=O)O; Gly(N-cHex) = O=C(O)CNC1CCCCC1; Nleu = CC(C)CNCC(=O)O; Nme = COCCNCC(=O)O; ξC = NC(CS)C(=O)O

One assay concerns serum IgG. Briefly: Peptoid ELISA, total IgG detection with serum pools. The format is binding, human. As to conditions: pooled serum of 10 TD males vs 10 ASD males. The procedure:
(§1) Peptoid compounds were immobilized onto maleimide-activated 96-well plates (Pierce Biotechnology, Rockford, Ill.) by dissolving them to 0.03-0.05 mM in a 0.1 M sodium phosphate, 0.15 M sodium chloride, 10 mM EDTA solution adjusted to pH 7.2 and incubating with shaking for 3 hrs at RT. Plates were washed with PBST and blocked with a 5% goat serum (Thermo Scientific, Rockford, Ill.) in PBST solution for 1 hr at RT. Plates were washed again and incubated with target (serum) samples diluted in blocking buffer (1:1 PBST-1% BSA and SuperBlock) for 2 hrs at RT. After washing, plates were incubated with Goat anti-Human IgG-Fc-HRP conjugate (Bethyl Laboratories, Montgomery, Tex.) diluted 1:30,000 in PBST-1% BSA or mouse anti-human IgG1 (hinge)-HRP conjugate (SouthernBiotech, Birmingham, Ala.) diluted 1:1000 in PBST-1% BSA for 30 min at RT. After another wash, plates were incubated in TMB substrate for 16 min at RT and stopped with 2M H2SO4. Plates were read at 450 nm. All samples were run in duplicate, and every assay contained ASD and TD serum pool samples to serve as internal controls. Results for individual samples were assessed as ratios to the ASD serum pool so as to control for plate-to-plate variation.
Using the same two serum pools as used during screening, the “hit” peptoids were then tested by ELISA for their ability to bind IgG from the two pools. […]
(In general: An ELISA detects its analyte on a solid surface through an enzyme-linked reagent.)

A further assay relates to serum IgG1. As to the kind of experiment: Peptoid ELISA, IgG1 subclass detection. The class given is binding, human. How it is done:
as §1

As to `COCCCN(CC(=O)N(CCc1ccc(OC)c(OC)c1)CC(=O)N(CC(=O)N(CC(=O)N(CCCOC)CC(=O)N(CC(=O)N(CCOC)CC(=O)NC(CS)C(N)=O)C1CCCCC1)CC(C)C)C1CCCCC1)C(=O)CNCCc1ccc(OC)c(OC)c1` (stereo not shown) [ASD1] (H-[N(3,4-(MeO)2phenethyl)Gly][Gly(N-(CH2)3OMe)][N(3,4-(MeO)2phenethyl)Gly][Gly(N-cHex)][Nleu][Gly(N-(CH2)3OMe)][Gly(N-cHex)][Nme][ξC]-NH2), the “differentiation in binding between the serum pools, total IgG” value with serum IgG is on record as “two-fold”. Besides, the “ASD1 binding, ASD females” value in the assay with serum IgG1 (ASD female serum samples, n=10) is reported as 1.76±0.81. Also, the “ASD1 binding, TD females” value with serum IgG1 (TD female serum samples, n=20) is listed as 1.97±0.38. Further, the “ASD1 binding of IgG1 from ASD males” value with serum IgG1 (individual ASD male serum samples, n=50, 1:100 dilution, ratio of sample absorbance to control serum pool, error SEM) stood at 1.33±0.31. Further, the “ASD1 binding of IgG1 from TD males” value in the assay on serum IgG1 (individual TD male serum samples, n=43, 1:100 dilution, ratio of sample absorbance to control serum pool, error SEM) came out at 2.88±0.55. Besides, the “ASD1 binding of IgG1 from older adult males” value with serum IgG1 (older adult male serum, n=53, compared with ASD and TD males) was “did not differ from that of the ASD males, but was significantly lower than that of the TD males”. The “differentiation in binding between the serum pools, secondary antibody specific to IgG1 subclass” value with serum IgG1 (pooled serum of 10 TD males vs 10 ASD males) is reported as “nearly four-fold”.
